What was measured:
MCF-7 cells = experiment: Cell proliferation assay in MCF-7 breast cancer cells (MTT); type: cell-based, human; details: for IC50: MCF-7 cells, 7 days of culture, MTT
Description: MCF-7 cells are human mammary carcinoma cells that are positive for estrogen receptors. The potential activity of vitamin D3 analogs against breast cancer was assessed from inhibition of proliferation of MCF-7 cells in culture.
(§1) MCF-7 cells were plated at 5000 cells/well in 96-well plates and incubated at 37°C in 5% CO2/95% air in Dulbecco's Modified Eagle Medium containing 10% fetal bovine serum 700 nM insulin, 2 mM glutamine, 0.1 mM MEM non-essential amino acids and 1 mM sodium pyruvate. Stock solutions of vitamin D3 analogs were prepared at a concentration of 10 mM in absolute ethanol and stored at -20°C under argon. One day after plating, MCF-7 cells were refed with either control medium or medium containing varying concentrations of the vitamin D3 analog.
For each vitamin D3 analog, the IC50 value was determined from a graph relating the optical density at 570 nm to the concentration used. The IC50 value was defined as the concentration of the vitamin D3 analog corresponding to half-maximal reduction in 570 nm absorbance.

ZR-75 cells = experiment: Cell proliferation assay in ZR-75 breast cancer cells (MTT); type: cell-based, human; details: for IC50: ZR-75 cells, 10 days of culture, MTT
Description: ZR-75 cells are human mammary carcinoma cells that are positive for estrogen receptors. The potential activity of vitamin D3 analogs against breast cancer was assessed from inhibition of proliferation of ZR-75 cells in culture.
as §1, with “ZR-75” for “MCF-7”, “12,500” for “5000”, “24-well” for “96-well”, “RPMI medium” for “Dulbecco's Modified Eagle Medium”, “and” for “700 nM insulin,”, “glutamine.” for “glutamine, 0.1 mM MEM non-essential amino acids and 1 mM sodium pyruvate.”
The IC50 value was defined as the concentration of the vitamin D3 analog corresponding to half-maximal reduction in 570 nm absorbance.

parathyroid hormone = experiment: Secondary hyperparathyroidism in the 7/8 nephrectomy rat renal insufficiency model (serum PTH, serum calcium); type: in vivo, Female Sprague Dawley rats; parameters: Final Ca Levels (mg/ml): unit not given here; details: for Final Ca Levels (mg/ml) / PTH pg/ml T=1-T=0: 7 days, 7/8 nephrectomized rats, serum
Text: • Compound of Formula Ia • 1,25(OH)2 vitamin D3 (control) • Vehicle - Miglyol 812
Female Sprague Dawley rats were anesthesized, their right kidney removed and 2-3 branches of the left renal artery were ligated to achieve 7/8 nephrectomy. They were placed on a high phosphorous diet (0.6% Ca and 0.8 phosphorous). Approximately 3-6 weeks after surgery, rats were bled to screen serum PTH levels and rats with PTH levels between 100-500 pg/ml were selected for the study.
There was a pre-bleed (T=0) and each group was dosed daily for seven days by oral gavage with either the compound of Formula Ia (10, 1 or 0.1 µg/kg/day), vehicle control or […] positive control. Compounds were predissolved in ethanol and diluted with vehicle (Miglyol 812) followed by evaporation of the ethanol.
After the last day of dosing, the animals were bled again (T=1) and sacrificed. Serum PTH assays were done with Nichols Institute Diagnostic Kit #40-2240. Serum calcium assays were done with Sigma Diagnostic Kit #587 with o-cresophthalein. Serum creatinine assays were done with Sigma Diagnostic Kit #1600-320 with ammonium molybdate.

[1] = test system: postmenopausal osteoporosis; details: 0.25 microgram twice daily, after 3 years, mild to moderate disease, versus elemental calcium 1000 mg/day; cited from earlier work

| Compound | IC50 (MCF-7 cells) | potency relative to 1,25-dihydroxy-cholecalciferol in inhibition of MCF-7 breast cells growth (MCF-7 cells; ratio of IC50 values) | IC50 (ZR-75 cells) | potency relative to 1,25-dihydroxy-cholecalciferol in inhibition of ZR-75 breast cells growth (ZR-75 cells; ratio of IC50 values) | Final Ca Levels (mg/ml) (parathyroid hormone; 0.1 µg/kg/day po) | PTH pg/ml T=1-T=0 (parathyroid hormone; 0.1 µg/kg/day po) | Final Ca Levels (mg/ml) (parathyroid hormone; 1 µg/kg/day po) | PTH pg/ml T=1-T=0 (parathyroid hormone; 1 µg/kg/day po) | Final Ca Levels (mg/ml) (parathyroid hormone; 10 µg/kg/day po) | PTH pg/ml T=1-T=0 (parathyroid hormone; 10 µg/kg/day po) | suppressing the elevated levels of parathyroid hormone (parathyroid hormone; compared with 1,25(OH)2 vit. D3, summary in words) | elevated calcium levels (parathyroid hormone; summary in words) | IC50 (MCF-7 cells; Homo sapiens, MCF7, 168 h) | IC50 (ZR-75 cells; Homo sapiens, ZR75, 240 h) | lower rate of new vertebral fractures [1] |
| --- | --- | --- | --- | --- | --- | --- | --- | --- | --- | --- | --- | --- | --- | --- | --- |
| (1α,3β,5Z,7E)-21-(3-hydroxy-3-methylbutyl)-9,10-Secocholesta-5,7,10, (19)-triene-1,3,25-triol [Formula Ia] | 0.8 nM | approximately 50 times | 0.3 nM | more than 40 times | 10.20 | 112 pg/mL | 10.35 | -124 pg/mL | 11.97 | -132 pg/mL | more effective than 1,25(OH)2 vit. D3 | without causing elevated calcium levels |  |  |  |
| C=C1/C(=C\C=C2/CCC[C@]3(C)[C@@H]([C@H](C)CCCC(C)(C)O)CC[C@@H]23)C[C@@H](O)C[C@@H]1O [1,25(OH)2 vit. D3, 1,25-dihydroxyvitamin D3, reference compound] |  |  |  |  |  | -66 pg/mL |  |  |  |  |  |  | 40 nM | 13 nM | 3 fold |
